Test [1] in a line: Comparative dosage study, sleep times in humans. Particulars: much lower dose with adjuvant, compared with oral. The format is in vivo. From the text: The best method for carrying out the invention: Alprazolam and adjuvant are formulated into sublingual tablets/sprays by conventional methods and administered and sleep times recorded for humans as well as animals.
The conditions of test [2]: same or similar dose with permeability enhancers, compared with oral. As for the experimental part: The clinical trials were conducted in two parts. The first part consisted of the following stages.
Further trials were carried out to determine the duration of action glipizide and adjuvant combination.
To test the efficacy of adjuvant we compared the efficacy of 5 mg of sub-lingual glipizide with adjuvant, with 5 mg of sublingual glipizide without adjuvant. […] Finally tests were carried out to determine whether the adjuvant used participates in receptor binding process. Keeping the amount of glipizide at 5 mg the quantity of adjuvant were doubled.

Like-named read-outs stand apart in the source and are kept apart here.

Take `Cc1nnc2n1-c1ccc(Cl)cc1C(c1ccccc1)=NC2` [alprazolam]: the increase in effect in test [1] was 200%.

For the compound `Cc1cnc(C(=O)NCCc2ccc(S(=O)(=O)NC(=O)NC3CCCCC3)cc2)cn1` [glipizide], in test [2], the increase in effect is listed as 3200%.

For the origin of these results see patent US20220257610A1, “Enhancing drug activity through accentuated buccal/sublingual administration” (priority 2019, published 2022).
